These molecules were tested against CDK2/Cyclin E kinase (Homo sapiens, UniProt P24941) (assay: CDK2/Cyclin E Flashplate Assay: 96-Well Format). Settings: streptavidin-coated flashplate; biotinylated-Rb peptide substrate 10 μM; 33P-ATP/ATP 1 μM; CDK2/Cyclin E 20 nM; 30 minutes at 30° C.; 1% DMSO.
Assay type: biochemical
Description: Functional Measurements for Determination of IC50-Values
CDK2/Cyclin E Flashplate Assay: 96-Well Format
A 96-well streptavidin-coated flashplate was used to assay potency of compounds according formula (I) against CDK2/Cyclin E kinase. To carry out the assay, biotinylated-Rb peptide substrate (Biotin-[…]-OH) was solubilized at 1 mM in kinase buffer (Hepes 50 mM, NaCl 1 mM, MgCl2 5 mM pH 7.5) as a stock solution conserved at −20° C. in aliquots of 110 μl. The day of the experiment, an aliquot of this solution was thawed and diluted to 14.3 μM in kinase buffer, containing 1 mM dithiothreitol (DTT) added in the buffer at the same time.
70 μl of this solution was added in each well of the flashplate in order to achieve a final concentration of 10 μM (100 μl reactionnal volume). Serial dilutions of inhibitors were prepared in DMSO from 10 mM stock solutions in order to achieve 1000 μM, 333.3 μM, 111.1 μM, 37.03 μM, 12.35 μM, 4.11 μM and 1.37 μM and all were rediluted in kinase buffer+DTT in order to achieve 100 μM, 33.3 μM, 11.1 μM, 3.7 μM, 1.24 μM, 0.41 μM and 0.14 μM in DMSO 10% buffer (vol/vol). 10 μl of each, of these solutions (or 10 μl of buffer+DTT for controls) were transferred to the testplate wells in order to achieve 10 μM, 3.33 μM, 1.11 μM, 0.37 μM, 0.12 μM, 0.04. μM and 0.01 μM as final concentrations, 1% DMSO (vol/vol). In each well, 10 μl of a solution of a mix of ^33PyATP/ATP were added in order to achieve 1 μM final concentration and a total of 1 μCi. The kinase reaction was initiated by addition of 10 μl of a solution at 200 nM of CDK2/Cyclin E in kinase buffer+DTT (or buffer+DTT for blanks) in order to achieve 20 nM final concentration. After addition of each reagent, the test-plate was shakened. The plates were incubated 30 minutes at 30° C. with a shaking at 650 rpm. At the end of the incubation, the plates were washed 3 times with 300 μl of PBS (without calcium and magnesium) per well. The incorporation of ^33P to the peptide was measured by scintillation counting.

SMILES | IC50
O=C(NCc1ccc(Cl)cc1)c1cc(-c2ccc(O)c(Cl)c2)n[nH]c1=O [Example 180, 6-(3-Chloro-4-hydroxy-phenyl)-3-oxo-2,3-dihydro-pyridazine-4-carboxylic acid 4-chloro-benzylamide] | 0.173 µM
O=C(NCc1ccc(Cl)cc1)c1cc(-c2ccnc(NCCN3CCOCC3)n2)n[nH]c1=O [Example 175, 6-[2-(2-Morpholin-4-yl-ethylamino)-pyrimidin-4-yl]-3-oxo-2,3-dihydro-pyridazine-4-carboxylicacid 4-chloro-benzylamide; compoundwith trifluoro-acetic acid] | 0.027 µM
CNc1nccc(-c2cc(C(=O)NCc3ccc(Cl)cc3)c(=O)[nH]n2)n1 [Example 34, 6-(2-Methylamino-pyrimidin-4-yl)-3-oxo-2,3-dihydro-pyridazine-4-carboxylic acid 4-chloro-benzylamide] | 0.03 µM
O=C(NCc1ccc(Cl)cc1Cl)c1cc(-c2ccncc2)n[nH]c1=O [Example 2, N-(2,4-dichlorobenzyl)-3-oxo-6-pyridin-4-yl-2,3-dihydropyridazine-4-carboxamide] | 0.905 µM
CCCCNc1nccc(-c2cc(C(=O)NCCCc3cccnc3)c(=O)[nH]n2)n1 [Example 220, 6-(2-Butylamino-pyrimidin-4-yl)-3-oxo-2,3-dihydro-pyridazine-4-carboxylic acid (3-pyridin-3-yl-propyl)-amide] | 0.012 µM
O=C(NCc1ccc(Cl)s1)c1cc(-c2ccncc2)n[nH]c1=O [Example 142, 3-Oxo-6-pyridin-4-yl-2,3-dihydro-pyridazine-4-carboxylic acid (5-chloro-thiophen-2-ylmethyl)-amide; compound withtrifluoro-acetic acid] | 0.356 µM
O=C(NCCCCO)c1cc(-c2ccncc2)n[nH]c1=O [Example 31, 3-Oxo-6-pyridin-4-yl-2,3-dihydro-pyridazine-4-carboxylic acid (4-hydroxy-butyl)-amide] | 0.581 µM
CCCCNc1nccc(-c2cc(C(=O)NCc3cccnc3)c(=O)[nH]n2)n1 [Example 219, 6-(2-Butylamino-pyrimidin-4-yl)-3-oxo-2,3-dihydro-pyridazine-4-carboxylic acid (pyridin-3-ylmethyl)-amide] | 0.015 µM
COc1ccc(CNC(=O)c2cc(-c3ccncc3)n[nH]c2=O)cc1 [Example 83, 3-Oxo-6-pyridin-4-yl-2,3-dihydro-pyridazine-4-carboxylic acid 4-methoxy-benzylamide;compound with trifluoro-acetic acid] | 0.552 µM
O=C(NCc1ccc(Cl)cc1)c1cc(-c2ccc(O)cc2)n[nH]c1=O [Example 40, 6-(4-Hydroxy-phenyl)-3-oxo-2,3-dihydro-pyridazine-4-carboxylicacid 4-chloro-benzylamide] | 0.119 µM

The remaining lines, values ahead:

IC50 | SMILES
0.764 µM | CCOC(=O)CCNC(=O)c1cc(-c2ccncc2)n[nH]c1=O [Example 13, Ethyl 3-[(3-oxo-6-pyridin-4-yl-2,3-dihydropyridazine-4-carbonyl)amino]propionate]
0.133 µM | O=C(NCCCc1cccnc1)c1cc(-c2ccc(O)cc2)n[nH]c1=O [Example 164, 6-(4-Hydroxy-phenyl)-3-oxo-2,3-dihydro-pyridazine-4-carboxylicacid (3-pyridin-3-yl-propyl)-amide]
0.349 µM | O=C(NCc1ccc(F)c(Br)c1)c1cc(-c2ccncc2)n[nH]c1=O [Example 93, 3-Oxo-6-pyridin-4-yl-2,3-dihydro-pyridazine-4-carboxylic acid 3-bromo-4-fluoro-benzylamide;compound with trifluoro-acetic acid]
0.536 µM | O=C(NCc1ccc(O)cc1)c1cc(-c2ccncc2)n[nH]c1=O [Example 18, N-(4-hydroxybenzyl)-3-oxo-6-pyridin-4-yl-2,3-dihydropyridazine-4-arboxamide]
0.353 µM | Cc1ccc(CNC(=O)c2cc(-c3ccncc3)n[nH]c2=O)s1 [Example 139, 3-Oxo-6-pyridin-4-yl-2,3-dihydro-pyridazine-4-carboxylic acid (5-methyl-thiophen-2-ylmethyl)-amide; compound withtrifluoro-acetic acid]
0.577 µM | O=C(NCc1ccc(Cl)cc1)c1cc(-c2ccncc2)n[nH]c1=O [Example 4, N-(4-chlorobenzyl)-3-oxo-6-pyridin-4-yl-2,3-dihydropyridazine-4-carboxamide-6]
0.787 µM | O=C(NCc1ccc(Cl)cc1F)c1cc(-c2ccncc2)n[nH]c1=O [Example 116, 3-Oxo-6-pyridin-4-yl-2,3-dihydro-pyridazine-4-carboxylic acid 4-chloro-2-fluoro-benzylamide;compound with trifluoro-acetic acid]
0.174 µM | O=C(NCc1ccc(Cl)c(Cl)c1)c1cc(-c2ccncc2)n[nH]c1=O [Example 16, N-(3,4-dichlorobenzyl)-3-oxo-6-pyridin-4-yl-2,3-dihydropyridazine-4-carboxamide]
0.344 µM | O=C(NCc1ccc(Cl)cc1)c1cc(-c2cn[nH]c2)n[nH]c1=O [Example 39, 3-Oxo-6-(1H-pyrazol-4-yl)-2,3-dihydro-pyridazine-4-carboxylic acid 4-chloro-benzylamide]
0.149 µM | COc1cc(-c2cc(C(=O)NCc3ccc(C(=O)O)cc3)c(=O)[nH]n2)ccc1O [Example 225, 4-({[6-(4-Hydroxy-3-methoxy-phenyl)-3-oxo-2,3-dihydro-pyridazine-4-carbonyl]-amino}-methyl)-benzoic acid]
0.024 µM | COC(=O)c1ccc(CNC(=O)c2cc(-c3ccncc3)n[nH]c2=O)cc1 [Example 217, 4-{[(3-Oxo-6-pyridin-4-yl-2,3-dihydro-pyridazine-4-carbonyl)-amino]-methyl}-benzoic acid methylester; compound withtrifluoro-acetic acid]
0.125 µM | C[C@@H](Nc1nccc(-c2cc(C(=O)NCCCc3cccnc3)c(=O)[nH]n2)n1)c1ccccc1 [Example 167, R-3-Oxo-6-[2-(1-phenyl-ethylamino)-pyrimidin-4-yl]-2,3-dihydro-pyridazine-4-carboxylic acid (3-pyridin-3-yl-propyl)-amide]

From patent US7462613B2, “Pyridazinone derivatives as pharmaceuticals and pharmaceutical compositions containing them” (SANOFI-AVENTIS Deutschland GmbH, priority 2002, dated 2008)
